Experimental findings from doi:10.1101/2024.08.19.608619, “Discovery of potent SARS-CoV-2 nsp3 macrodomain inhibitors uncovers lack of translation to cellular antiviral response” (bioRxiv, 2024) are described below.

For this experiment, the target named is HiBiT-tagged nsp3-mac1 in HEK293 cells (Severe acute respiratory syndrome coronavirus 2, UniProt P0DTD1). The experiment can be described thus: HiBiT Cellular Thermal Shift Assay / isothermal dose response thermal shift assay (ITDRF CETSA). It is filed as cell-based, SARS-CoV-2. Conditions: fixed temperature 50.6°C. On the procedure:
A PCR product encoding SARS Cov-2 macrodomain residues 2 to 176 was cloned into the XhoI and BamHI restriction sites of the pBIT3.1-N vector (Promega) which has an N-terminal 11 amino acid HiBiT tag.
A PCR product encoding SARS Cov-2 macrodomain residues 1 to 176 was cloned into the HindIII and XhoI restriction sites of the pBIT3.1-C vector(Promega) which has an C-terminal 11 amino acid HiBiT tag.
Both constructs were evaluated for CETSA experiments and found to give similar results. For the results described the CHIBIT tag was used.
HiBiT Cellular Thermal Shift Assay (HiBiT-CETSA). To assess the engagement of nsp3-mac1 in intact cells, a HiBiT Cellular Thermal Shift Assay was conducted as described by Ramachandran et al. ([23]). The Nano-Glo HiBiT lytic detection system (Promega) was used according to the manufacturer’s instructions. Briefly, HEK293 cells were reverse-transfected with HiBiT-tagged nsp3-mac1 at a concentration of 400,000 cells/mL using the FuGENE transfection reagent (Promega). Following a 24-hour incubation period, the cells were trypsinized and resuspended in assay medium at the same concentration.
For CETSA, the cells were divided into two groups: one treated with 30 μM of the compounds and the other with DMSO as a control. […] The luminescence signals were measured using a PHERAstar FSX and analyzed with GraphPad Prism software (v.9 or v.10).

Turning to `Cc1nn(C)cc1-c1cc2c(NC(c3ccc4c(c3)S(=O)(=O)CCC4)C(C)C)ncnc2[nH]1` (stereo not shown) [ASAP-0011446], the half-maximal effective concentration (EC50) came out at 0.014 µM.
